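Cells were grown in 96-well plates and exposed to each compound for 48 hours at five concentrations; endpoints were interpolated linearly between bracketing concentrations, or set to the highest concentration if not reached. GI50 is the concentration that inhibits growth by half. The concentration for full growth arrest is given as TGI.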

Some test systems named below: CAKI-1 renal; A549 NSCLC; ACHN renal; EKVX NSCLC; MOLT-4 leukemia; SNB-19 CNS; HS 578T breast; HCT-116 colon; SK-OV-3 ovarian; SNB-75 CNS.
Holding throughout (assay): growth of human tumour cells (NCI), 48 h

Turning to `Oc1c(Br)cc(Br)c2cccnc12`, the GI50 in the assay on CAKI-1 renal is 2.29 µM; with A549 NSCLC it was 3.62 µM; in the assay with ACHN renal it was 3.48 µM; in the assay on EKVX NSCLC it was 3.45 µM; in the assay on MOLT-4 leukemia, 3 µM; in the assay on SNB-19 CNS, 3.99 µM. In addition, the GI50 with HS 578T breast is 5.73 µM; with HCT-116 colon, 3.22 µM; in the assay with SK-OV-3 ovarian, 3.99 µM; with SNB-75 CNS it was 10.7 µM. Further, the TGI with CAKI-1 renal is 6.79 µM; in the assay with A549 NSCLC, 54.6 µM; in the assay with ACHN renal, 18.6 µM; in the assay on EKVX NSCLC, 19.1 µM; with MOLT-4 leukemia, 8.49 µM; in the assay on SNB-19 CNS, more than 100 µM. In addition, the TGI was more than 100 µM in the assay on HS 578T breast, 10.6 µM in the assay on HCT-116 colon, 21.1 µM in the assay with SK-OV-3 ovarian and more than 100 µM in the assay on SNB-75 CNS.

As to `C#Cc1cccc(NC(=O)Nc2cccc(NC(=O)CCl)c2)c1`, the GI50 with CAKI-1 renal is more than 82.5 µM; in the assay on A549 NSCLC it was more than 82.5 µM; with ACHN renal, 41.5 µM; with EKVX NSCLC, more than 82.5 µM; in the assay with MOLT-4 leukemia it was 12.5 µM; in the assay on SNB-19 CNS it was more than 82.5 µM. Further, the GI50 is 21.2 µM in the assay with HS 578T breast, 20.9 µM with HCT-116 colon, 46.5 µM in the assay on SK-OV-3 ovarian and 8.67 µM in the assay with SNB-75 CNS. Moreover, the TGI in the assay on CAKI-1 renal was more than 82.5 µM; in the assay on A549 NSCLC, more than 82.5 µM; in the assay on ACHN renal it was more than 82.5 µM; in the assay on EKVX NSCLC it was more than 82.5 µM; in the assay on MOLT-4 leukemia, 81.4 µM; with SNB-19 CNS it was more than 82.5 µM. The TGI in the assay with HS 578T breast, in the assay with HCT-116 colon, in the assay with SK-OV-3 ovarian and with SNB-75 CNS was more than 82.5 µM each time.

`Cc1nn(-c2ccccc2)c2ncc3c(c12)C(=O)N(Cc1ccccc1)C3=O`: the GI50 in the assay on CAKI-1 renal is 2.43 µM; in the assay with A549 NSCLC, 5.25 µM; with ACHN renal it was 3.57 µM; in the assay on EKVX NSCLC, 5.64 µM; in the assay with MOLT-4 leukemia, 6.77 µM; in the assay with SNB-19 CNS it was 12.7 µM. The GI50 in the assay on HS 578T breast is 2.98 µM; in the assay with HCT-116 colon, 1.21 µM; in the assay with SK-OV-3 ovarian, 5.73 µM; in the assay with SNB-75 CNS, 2.23 µM. In addition, the TGI with CAKI-1 renal was 5.97 µM; in the assay on A549 NSCLC it was more than 100 µM; in the assay with ACHN renal, 13.7 µM; with EKVX NSCLC, more than 100 µM; in the assay with MOLT-4 leukemia it was 40.3 µM; in the assay on SNB-19 CNS it was more than 100 µM. In addition, the TGI in the assay with HS 578T breast is more than 100 µM; with HCT-116 colon, 6.67 µM; with SK-OV-3 ovarian it was more than 100 µM; in the assay on SNB-75 CNS it was 6.64 µM.

As for `O=C(/C=C/CN1CCCCC1)Nc1cc2c(Nc3ccc(F)c(Cl)c3F)ncnc2cc1OCCOC(F)F`, the GI50 in the assay on CAKI-1 renal was less than 0.0151 µM; in the assay on A549 NSCLC, 0.585 µM; with ACHN renal, less than 0.01 µM; in the assay with EKVX NSCLC, 0.0646 µM; with MOLT-4 leukemia, 1.15 µM; in the assay on SNB-19 CNS it was 1.94 µM. Besides, the GI50 is 0.873 µM with HS 578T breast, 1.31 µM in the assay on HCT-116 colon, less than 0.0201 µM with SK-OV-3 ovarian and 0.265 µM in the assay with SNB-75 CNS. Further, the TGI stood at 1.44 µM in the assay on CAKI-1 renal; 9.92 µM in the assay with A549 NSCLC; 1.55 µM in the assay on ACHN renal; 5.22 µM in the assay on EKVX NSCLC; 5.27 µM with MOLT-4 leukemia; 13.5 µM with SNB-19 CNS. The TGI in the assay with HS 578T breast is 6.05 µM; in the assay on HCT-116 colon, 8.43 µM; with SK-OV-3 ovarian, 0.263 µM; in the assay on SNB-75 CNS, 4.81 µM.

With `COc1ccc(-c2nccn2-c2cc(OC)c(OC)c(OC)c2)cc1`, the GI50 with CAKI-1 renal is 1.22 µM; with A549 NSCLC, 4.94 µM; in the assay on ACHN renal, 6.07 µM; in the assay on EKVX NSCLC it was more than 54.5 µM; with MOLT-4 leukemia it was 18.3 µM; with SNB-19 CNS, 4.77 µM. Besides, the GI50 with HS 578T breast was 8.9 µM; in the assay with HCT-116 colon, 1.9 µM; in the assay with SK-OV-3 ovarian, 6.13 µM; in the assay on SNB-75 CNS it was 1.51 µM. Moreover, the TGI in the assay with CAKI-1 renal is more than 77.1 µM; in the assay with A549 NSCLC it was more than 100 µM; in the assay with ACHN renal, more than 100 µM; in the assay with EKVX NSCLC, more than 100 µM; with MOLT-4 leukemia it was more than 100 µM; in the assay with SNB-19 CNS, more than 35.6 µM. Moreover, the TGI was more than 77.6 µM with HS 578T breast, more than 100 µM in the assay on HCT-116 colon, more than 25.6 µM in the assay with SK-OV-3 ovarian and more than 76.3 µM with SNB-75 CNS.

As to `COc1ccc(/C=C2\CC(C)CC3C2=NN(C(C)=O)C3c2ccc(OC)c(OC)c2)cc1OC` (centres undefined), the GI50 with CAKI-1 renal was 53.3 µM; in the assay with A549 NSCLC, 18.7 µM; in the assay with ACHN renal, 17.6 µM; in the assay with EKVX NSCLC, 19.2 µM; with MOLT-4 leukemia, 12.6 µM; with SNB-19 CNS it was 17.7 µM. The GI50 in the assay on HS 578T breast is 26.2 µM; in the assay on HCT-116 colon it was 13.7 µM; in the assay on SK-OV-3 ovarian, 31 µM; with SNB-75 CNS, 24.8 µM. For the same compound, the TGI with CAKI-1 renal is more than 100 µM; in the assay on A549 NSCLC it was 77.8 µM; in the assay with ACHN renal, 46.5 µM; in the assay on EKVX NSCLC, 70.1 µM; in the assay on MOLT-4 leukemia it was 43.6 µM; with SNB-19 CNS it was 39.4 µM. The TGI worked out at 61.3 µM in the assay on HS 578T breast, 26.6 µM with HCT-116 colon, 75.7 µM with SK-OV-3 ovarian and 54.3 µM in the assay on SNB-75 CNS.

On to `CC(=O)OC1C(OC/C2=C/C3[C@@H](C(C)C)CC=C(C)[C@@H]3CC(OC(=O)/C=C/c3cn(C)cn3)[C@]3(C)C=C[C@@]2(O)O3)OCC(O)C1O` (some centres undefined), for which the GI50 with CAKI-1 renal was 0.196 µM; in the assay on A549 NSCLC, 0.0206 µM; in the assay on ACHN renal it was 0.381 µM; in the assay with EKVX NSCLC, 0.0707 µM; in the assay with MOLT-4 leukemia, 0.0415 µM; in the assay on SNB-19 CNS it was 0.0364 µM. The GI50 was 0.00831 µM with HS 578T breast, 0.011 µM in the assay on HCT-116 colon, 0.0132 µM in the assay with SK-OV-3 ovarian and 0.00575 µM in the assay on SNB-75 CNS. In addition, the TGI in the assay on CAKI-1 renal was more than 13.2 µM; in the assay on A549 NSCLC, more than 50 µM; in the assay on ACHN renal, more than 50 µM; in the assay with EKVX NSCLC, more than 50 µM; in the assay on MOLT-4 leukemia, more than 50 µM; in the assay on SNB-19 CNS, more than 50 µM. Further, the TGI with HS 578T breast is 0.035 µM; in the assay on HCT-116 colon, more than 50 µM; in the assay on SNB-75 CNS it was 0.0319 µM.

(Values after PubChem BioAssay (NCI).)
